Measurements taken from ChEMBL document CHEMBL1201862, “PubChem BioAssay data set” (2004).
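Cultured in 96-well plates, cells were exposed to test compound for 48 hours across five concentrations. GI50: concentration for 50% inhibition of growth.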 Activity calls are given as the source filed them. Rule as the data show it: active = GI50 up to about 1.1 µM and inactive = higher.

Key:
Test in all cases: NCI-60 cell line screen, 48 h
K562 = test system: K562
RPMI-8226 = test system: RPMI-8226
UO-31 = test system: UO-31
KM12 = test system: KM12
M19-MEL = test system: M19-MEL
HOP-62 = test system: HOP-62
SF-539 = test system: SF-539
OVCAR-3 = test system: OVCAR-3
SN12C = test system: SN12C
ACHN = test system: ACHN
LOX IMVI = test system: LOX IMVI
RXF 631 = test system: RXF 631
DMS-273 = test system: DMS-273
NCI-H226 = test system: NCI-H226
OVCAR-5 = test system: OVCAR-5
HCT-15 = test system: HCT-15
Malme-3M = test system: Malme-3M
SF-295 = test system: SF-295
LXFL 529 = test system: LXFL 529
A549 = test system: A549
OVCAR-8 = test system: OVCAR-8
COLO 205 = test system: COLO 205
SW-620 = test system: SW-620
UACC-257 = test system: UACC-257
SK-MEL-28 = test system: SK-MEL-28
NCI-H23 = test system: NCI-H23
KM-20L2 = test system: KM-20L2
SNB-19 = test system: SNB-19
UACC-62 = test system: UACC-62
DMS-114 = test system: DMS-114
TK-10 = test system: TK-10
NCI-H522 = test system: NCI-H522
MOLT-4 = test system: MOLT-4
SNB-75 = test system: SNB-75
SF-268 = test system: SF-268
A498 = test system: A498
HCC 2998 = test system: HCC 2998
U-251 = test system: U-251
M14 = test system: M14
HCT-116 = test system: HCT-116
SR = test system: SR
XF498 = test system: XF498
786-0 = test system: 786-0
HT-29 = test system: HT-29
NCI-H460 = test system: NCI-H460
OVCAR-4 = test system: OVCAR-4
SNB-78 = test system: SNB-78
CAKI-1 = test system: CAKI-1
RXF 393 = test system: RXF 393
SK-MEL-2 = test system: SK-MEL-2
SK-MEL-5 = test system: SK-MEL-5
IGROV-1 = test system: IGROV-1
DLD-1 = test system: DLD-1

For CCOC(=O)[C@H]1Nc2ccc(OC)cc2C2c3ccccc3CC21 (stereo partly drawn), the GI50 (K562) was > 100 µM (inactive), the GI50 (RPMI-8226) was > 100 µM (inactive) and the GI50 (UO-31) was > 100 µM (inactive). For the same molecule, the GI50 (KM12) was > 100 µM (inactive), the GI50 (M19-MEL) was > 100 µM (inactive) and the GI50 (HOP-62) was > 100 µM (inactive). For the same molecule, the GI50 (SF-539) was > 100 µM (inactive), the GI50 (OVCAR-3) was > 100 µM (inactive) and the GI50 (SN12C) was > 100 µM (inactive). For the same molecule, the GI50 (ACHN) was > 100 µM (inactive), the GI50 (LOX IMVI) was > 100 µM (inactive) and the GI50 (RXF 631) was > 100 µM (inactive). For the same molecule, the GI50 (DMS-273) was > 100 µM (inactive), the GI50 (NCI-H226) was > 100 µM (inactive) and the GI50 (OVCAR-5) was > 100 µM (inactive). For the same molecule, the GI50 (HCT-15) was > 100 µM, the GI50 (Malme-3M) was > 100 µM (inactive) and the GI50 (SF-295) was > 100 µM (inactive). The GI50 (LXFL 529) was > 100 µM (inactive), the GI50 (A549) was > 100 µM (inactive) and the GI50 (OVCAR-8) was > 100 µM (inactive). For the same molecule, the GI50 (COLO 205) was > 100 µM (inactive), the GI50 (SW-620) was > 100 µM (inactive) and the GI50 (UACC-257) was > 100 µM (inactive). For the same molecule, the GI50 (SK-MEL-28) was > 100 µM (inactive), the GI50 (NCI-H23) was > 100 µM (inactive) and the GI50 (KM-20L2) was > 100 µM (inactive). The GI50 (SNB-19) was > 100 µM (inactive), the GI50 (UACC-62) was > 100 µM (inactive) and the GI50 (DMS-114) was > 100 µM (inactive). The GI50 (TK-10) was > 100 µM (inactive), the GI50 (NCI-H522) was > 100 µM (inactive) and the GI50 (MOLT-4) was > 100 µM (inactive). The GI50 (SNB-75) was 83.9 µM (inactive), the GI50 (SF-268) was > 100 µM (inactive) and the GI50 (A498) was > 100 µM (inactive). For the same molecule, the GI50 (HCC 2998) was 46.8 µM (inactive), the GI50 (U-251) was > 100 µM (inactive) and the GI50 (M14) was > 100 µM (inactive). For the same molecule, the GI50 (HCT-116) was > 100 µM (inactive), the GI50 (SR) was > 100 µM (inactive) and the GI50 (XF498) was > 100 µM (inactive). The GI50 (786-0) was > 100 µM (inactive), the GI50 (HT-29) was > 100 µM (inactive) and the GI50 (NCI-H460) was > 100 µM (inactive). For the same molecule, the GI50 (OVCAR-4) was > 100 µM (inactive), the GI50 (SNB-78) was > 100 µM (inactive) and the GI50 (CAKI-1) was > 100 µM (inactive). For the same molecule, the GI50 (RXF 393) was 37.5 µM (inactive), the GI50 (SK-MEL-2) was > 100 µM (inactive) and the GI50 (SK-MEL-5) was > 100 µM (inactive). The GI50 (IGROV-1) was > 100 µM (inactive) and the GI50 (DLD-1) was > 100 µM (inactive).
